# Active and inactive are the calls of the source. No cut-off for these calls is given here.
# Experiments:
# [1] = target: Pyruvate kinase PKM (Homo sapiens) (UniProt P14618); test: Maximum activation of human PKM2 assessed as ATP product formation at 57 uM after 1 hr by luminescent pyruvate kinase-luciferase coupled assay relative to fructose-1,6-bis-phosphate
# [2] = target: Pyruvate kinase PKM (Homo sapiens) (UniProt P14618); test: Activation of PKM1 assessed as ATP product formation by luminescent pyruvate kinase-luciferase coupled assay
# [3] = target: Pyruvate kinase PKM (Homo sapiens) (UniProt P14618); test: Activation of PKM1 assessed as pyruvate formation by fluorescent pyruvate kinase-lactate dehydrogenase coupled assay
# [4] = test system: O=P(O)(O)OC[C@H]1O[C@@](O)(COP(=O)(O)O)[C@@H](O)[C@@H]1O; test: Activation of human PKM2 assessed as reduction of Km for phosphoenolpyruvate
# [5] = test system: O=P(O)(O)OC[C@H]1O[C@@](O)(COP(=O)(O)O)[C@@H](O)[C@@H]1O; test: Activation of human PKM2 assessed as effect on Km for ADP
# Sequence of Pyruvate kinase PKM (Homo sapiens) (P14618 2-531 limits assumed): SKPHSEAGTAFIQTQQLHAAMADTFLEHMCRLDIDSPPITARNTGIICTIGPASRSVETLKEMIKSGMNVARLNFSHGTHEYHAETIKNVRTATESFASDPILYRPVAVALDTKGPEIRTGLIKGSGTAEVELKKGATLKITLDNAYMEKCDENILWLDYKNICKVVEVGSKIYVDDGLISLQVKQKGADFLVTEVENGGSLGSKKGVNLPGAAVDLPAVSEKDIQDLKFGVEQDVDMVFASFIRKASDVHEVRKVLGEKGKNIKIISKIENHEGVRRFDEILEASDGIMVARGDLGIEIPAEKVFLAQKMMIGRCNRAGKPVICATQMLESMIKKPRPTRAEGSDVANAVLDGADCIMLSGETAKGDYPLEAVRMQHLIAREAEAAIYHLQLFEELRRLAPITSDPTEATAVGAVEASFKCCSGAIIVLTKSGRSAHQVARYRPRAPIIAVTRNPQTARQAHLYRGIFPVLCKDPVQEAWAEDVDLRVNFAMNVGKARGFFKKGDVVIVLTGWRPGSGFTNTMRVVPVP
# Sequence of Pyruvate kinase PKM (Homo sapiens), P14618 (P14618 whole entry): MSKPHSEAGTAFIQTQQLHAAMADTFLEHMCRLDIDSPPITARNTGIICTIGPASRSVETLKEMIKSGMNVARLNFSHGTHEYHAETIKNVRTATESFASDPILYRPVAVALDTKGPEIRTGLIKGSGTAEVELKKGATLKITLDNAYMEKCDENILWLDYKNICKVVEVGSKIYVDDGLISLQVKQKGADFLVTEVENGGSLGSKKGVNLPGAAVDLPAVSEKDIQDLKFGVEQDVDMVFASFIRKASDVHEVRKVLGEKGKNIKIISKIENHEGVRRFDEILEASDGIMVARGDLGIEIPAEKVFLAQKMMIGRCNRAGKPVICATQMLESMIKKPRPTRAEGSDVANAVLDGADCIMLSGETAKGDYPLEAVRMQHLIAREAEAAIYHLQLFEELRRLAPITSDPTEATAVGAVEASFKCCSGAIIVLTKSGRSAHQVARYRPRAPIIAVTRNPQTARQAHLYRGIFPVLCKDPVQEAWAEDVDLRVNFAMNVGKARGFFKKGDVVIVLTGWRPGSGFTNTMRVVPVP
Compound,Activity [1],Activity [2],Activity [3],Km [4] [µM],Km [5] [µM]
Cc1cc2c(s1)c1cnn(Cc3cccc(F)c3F)c(=O)c1n2C,73%,inactive,inactive,–,–
Cc1cc2c(s1)c1cnn(Cc3ccc(C(F)(F)F)cc3F)c(=O)c1n2C,59%,inactive,inactive,–,–
Cn1c2cc(C=O)sc2c2cnn(Cc3ccccc3F)c(=O)c21,100%,inactive,inactive,–,–
Cc1cc2c(s1)c1cnn(Cc3ccccc3F)c(=O)c1n2C,122%,inactive,inactive,–,–
Cc1cc2c(s1)c1cnn(Cc3ccc(F)cc3F)c(=O)c1n2C,–,inactive,inactive,–,–
COc1ccc(Cn2ncc3c4sc(C)cc4n(C)c3c2=O)cc1F,68%,inactive,inactive,–,–
Cn1c2ccsc2c2ncn(Cc3ccccc3F)c(=O)c21,61%,inactive,inactive,–,–
COc1cccc(Cn2ncc3c4sc([S+](C)[O-])cc4n(C)c3c2=O)c1 (stereo not drawn),99%,inactive,inactive,–,–
Cc1cc2[nH]c3c(=O)n(Cc4ccccc4F)ncc3c2s1,inactive,inactive,inactive,–,–
CC(C)c1cc2c(s1)c1cnn(Cc3ccccc3F)c(=O)c1n2C,106%,inactive,inactive,–,–
Cn1c2cc(B(O)O)sc2c2cnn(Cc3ccccc3F)c(=O)c21,101%,inactive,inactive,–,–
CCn1c2cc(C)sc2c2cnn(Cc3ccccc3F)c(=O)c21,96%,inactive,inactive,–,–
Cc1cc2c(s1)c1cnn(Cc3cccc(C)c3F)c(=O)c1n2C,97%,inactive,inactive,–,–
Cc1cc2c(s1)c1cnn(Cc3ccc(F)c(F)c3F)c(=O)c1n2C,69%,inactive,inactive,–,–
Cc1cc2c(s1)c1cnn(-c3ccccc3)c(=O)c1n2C,inactive,inactive,inactive,–,–
Cc1cc2c(s1)c1cnn(Cc3cccc(F)c3)c(=O)c1n2C,92%,inactive,inactive,–,–
Cn1c2cc([S+](C)[O-])sc2c2cnn(Cc3cccc(O)c3)c(=O)c21 (stereo not drawn),102%,inactive,inactive,–,–
"Pyruvate kinase PKM (Homo sapiens), P14618",–,–,–,100,100
COc1cc2c(s1)c1cnn(Cc3ccccc3F)c(=O)c1n2C,–,inactive,inactive,–,–
Cc1cc2c(s1)c1cnn(Cc3ccc(C(F)(F)F)cc3)c(=O)c1n2C,56%,inactive,inactive,–,–
Cn1c2cc(S(C)(=O)=O)sc2c2cnn(Cc3ccccc3F)c(=O)c21,inactive,inactive,inactive,–,–
Cc1cc2c(s1)c1cnn(Cc3c(F)c(F)cc(F)c3F)c(=O)c1n2C,59%,inactive,inactive,–,–
COC(=O)c1cc2c(s1)c1cnn(Cc3ccccc3F)c(=O)c1n2C,70%,inactive,inactive,–,–

Compound,Activity [1],Activity [2],Activity [3],Km [4] [µM],Km [5] [µM]
Cc1cc2c(s1)c1cnn(Cc3c(F)cccc3F)c(=O)c1n2C,94%,inactive,inactive,–,–
Cn1c2ccsc2c2cnn(Cc3ccccc3F)c(=O)c21,93%,inactive,inactive,–,–
Cc1ccc(Cn2ncc3c4sc(C)cc4n(C)c3c2=O)c(F)c1,81%,inactive,inactive,–,–
Cc1cc2c(s1)c1cnn(Cc3ccc(F)cc3)c(=O)c1n2C,102%,inactive,inactive,–,–
CC(=O)c1cc2c(s1)c1cnn(Cc3ccccc3F)c(=O)c1n2C,108%,inactive,inactive,–,–
CC(=O)Nc1cc2c(s1)c1cnn(Cc3ccccc3F)c(=O)c1n2C,59%,inactive,inactive,–,–
Cc1cc2c(s1)c1cnn(Cc3c(F)cccc3Cl)c(=O)c1n2C,93%,inactive,inactive,–,–
Cc1ccc(Cn2ncc3c4sc(C)cc4n(C)c3c2=O)cc1,84%,inactive,inactive,–,–
CCc1cc2c(s1)c1cnn(Cc3ccccc3F)c(=O)c1n2C,105%,inactive,inactive,–,–
CC(O)c1cc2c(s1)c1cnn(Cc3ccccc3F)c(=O)c1n2C (stereo not drawn),120%,inactive,inactive,–,–
Cn1c2cc(CO)sc2c2cnn(Cc3ccccc3F)c(=O)c21,103%,inactive,inactive,–,–
Cc1cc2c(s1)c1cnn(Cc3ccccc3F)c(=O)c1n2C(C)C,inactive,inactive,inactive,–,–
COc1ccc(Cn2ncc3c4sc(C)cc4n(C)c3c2=O)cc1,96%,inactive,inactive,–,–
CCCCCn1ncc2c3sc(C)cc3n(C)c2c1=O,47%,inactive,inactive,–,–
Cc1cc2c(s1)c1cnn(Cc3cccc(Cl)c3)c(=O)c1n2C,99%,inactive,inactive,–,–
Cn1c2cc([S+](C)[O-])sc2c2cnn(Cc3ccccc3F)c(=O)c21 (stereo not drawn),98%,inactive,inactive,–,–
Cc1cc2c(s1)c1c(C)nn(Cc3ccccc3F)c(=O)c1n2C,56%,inactive,inactive,–,–
Cc1cc2c(s1)c1cnn(Cc3ccc(Cl)cc3)c(=O)c1n2C,91%,inactive,inactive,–,–
CSc1cc2c(s1)c1cnn(Cc3ccccc3F)c(=O)c1n2C,96%,inactive,inactive,–,–
Cc1cc2c(s1)c1cnn(Cc3ccccc3Cl)c(=O)c1n2C,96%,inactive,inactive,–,–
Cn1c2cc(C#N)sc2c2cnn(Cc3ccccc3F)c(=O)c21,84%,inactive,inactive,–,–
Cn1c2cc([N+](=O)[O-])sc2c2cnn(Cc3ccccc3F)c(=O)c21,–,inactive,inactive,–,–
Cc1cc2c(s1)c1cnn(Cc3ccccc3)c(=O)c1n2C,–,inactive,inactive,–,–

# — ChEMBL document CHEMBL1155492, “Evaluation of thieno[3,2-b]pyrrole[3,2-d]pyridazinones as activators of the tumor cell specific M2 isoform of pyruvate kinase” (Bioorg Med Chem Lett, 2010)
